Reference: patent US12534452B2, “N-(1H-imidazol-2-yl)benzamide compound and pharmaceutical composition comprising the same as active ingredient” (KAINOS MEDICINE, INC., priority 2019, dated 2026)

Molecular target: IRAK4 (Homo sapiens (Human), UniProt Q9NWZ3)
Assay: In vitro IRAK4 phosphorylation activity assay
Assay type: biochemical
Conditions: [γ-33P]-ATP, myelin basic protein substrate, 40 minutes at room temperature; categories
Procedure: In vitro IRAK4 analysis was performed using N-(1H-imidazol-2-yl)benzamide compounds according to the present invention. All compounds were prepared by dissolving in DMSO. N-(1H-imidazol-2-yl)benzamide compound according to the present invention and other elements for the reaction were added to an assay well. In the standard Kinase Profiler service the preincubation step between the N-(1H-imidazol-2-yl)benzamide compound and kinase was not performed before the reaction.
To the positive control well, all reactants except for the N-(1H-imidazol-2-yl)benzamide compound according to the present invention were added, and DMSO was added to remove the solvent effect. A known control inhibitor having the following structure was added to the blank wells to inhibit kinase activity and establish a base-line.
IRAK4 was incubated with 8 mM MOPS pH 7.0, 0.2 mM EDTA, 0.33 mg/mL myelin basic protein, 10 mM magnesium acetate and [γ-33P]-ATP (specific activity approx. 500 cpm/pmol, concentration as required). The reaction was initiated by the addition of the MgATP mix. After incubation for 40 minutes at room temperature, the reaction was stopped by the addition of 3% phosphoric acid solution. 10 μL of the reaction was then spotted onto a P30 filtermat and washed three times for 5 minutes in 75 mM phosphoric acid and once in methanol prior to drying and scintillation counting.
The results are shown in Table 26 below, where the phosphorylation activity of IC50 values for IRAK4 is shown in categories (A: <50 nM, B: 50-100 nM, C: >100 nM).

IRAK4, sequence (Q9NWZ3 whole entry): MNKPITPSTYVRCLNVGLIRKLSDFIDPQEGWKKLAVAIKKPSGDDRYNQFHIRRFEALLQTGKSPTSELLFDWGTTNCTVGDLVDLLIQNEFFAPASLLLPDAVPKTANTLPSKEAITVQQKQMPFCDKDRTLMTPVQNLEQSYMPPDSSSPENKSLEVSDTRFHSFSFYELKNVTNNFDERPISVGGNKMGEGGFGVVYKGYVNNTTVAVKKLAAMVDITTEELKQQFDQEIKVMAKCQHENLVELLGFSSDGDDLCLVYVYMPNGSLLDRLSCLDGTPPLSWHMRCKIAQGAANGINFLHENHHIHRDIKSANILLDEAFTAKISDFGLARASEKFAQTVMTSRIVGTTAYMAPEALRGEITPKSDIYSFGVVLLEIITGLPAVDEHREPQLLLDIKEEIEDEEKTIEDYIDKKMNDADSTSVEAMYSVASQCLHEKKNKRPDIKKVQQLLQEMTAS

Compound | IC50
O=C(CCCc1cn(-c2ccccc2)c(NC(=O)c2cccc(-c3cnn(C(F)(F)F)c3)c2)n1)NC1CC1 [Example 236, N-(4-(4-(cyclopropylamino)-4-oxobutyl)-1-phenyl-1H-imidazol-2-yl)-3-(1-(trifluoromethyl)-1H-pyrazol-4-yl)benzamide] | < 50 nM
Cn1cc(-c2cccc(C(=O)Nc3nc(CCCC(=O)NCC(C)(C)O)cn3-c3ccccc3)c2)cn1 [Example 170, N-(4-(4-((2-hydroxy-2-methylpropyl)amino)-4-oxobutyl)-1-phenyl-1H-imidazol-2-yl)-3-(1-methyl-1H-pyrazol-4-yl)benzamide] | < 50 nM
O=C(CCCCCc1cn(-c2ccccc2)c(NC(=O)c2cccc(-c3ccc4[nH]ncc4c3)c2)n1)NC1CC1 [Example 238, N-(4-(6-(cyclopropylamino)-6-oxohexyl)-1-phenyl-1H-imidazol-2-yl)-3-(1H-indazol-5-yl)benzamide] | < 50 nM
O=C(Nc1nc(CCCO)cn1-c1ccccc1)c1cccc(-c2cn[nH]c2)c1 [Example 105, N-(4-(3-hydroxypropyl)-1-phenyl-1H-imidazol-2-yl)-3-(1H-pyrazol-4-yl)benzamide] | < 50 nM
Cn1cc(-c2cccc(C(=O)Nc3nc(CCCC(=O)NCCCO)cn3-c3ccccc3)c2)cn1 [Example 165, N-(4-(4-((3-hydroxypropyl)amino)-4-oxobutyl)-1-phenyl-1H-imidazol-2-yl)-3-(1-methyl-1H-pyrazol-4-yl)benzamide] | < 50 nM
O=C(Nc1nc(CCCCN2CCOCC2)cn1-c1ccccc1)c1cccc(-c2cn[nH]c2)c1 [Example 114, N-(4-(4-morpholinobutyl)-1-phenyl-1H-imidazol-2-yl)-3-(1H-pyrazol-4-yl)benzamide] | < 50 nM
O=C(CCCc1cn(-c2ccccc2)c(NC(=O)c2cccc(-c3cccc4[nH]ncc34)c2)n1)NC1CC1 [Example 249, N-(4-(4-(cyclopropylamino)-4-oxobutyl)-1-phenyl-1H-imidazol-2-yl)-3-(1H-indazol-4-yl)benzamide] | < 50 nM
COC[C@@H]1CCCN1NC(=O)Cc1cn(-c2ccccc2)c(NC(=O)c2cccc(-c3cn[nH]c3)c2)n1 [Example 44, (S)—N-(4-(2-((2-(methoxymethyl)pyrrolidin-1-yl)amino)-2-oxoethyl)-1-phenyl-1H-imidazol-2-yl)-3-(1H-pyrazol-4-yl)benzamide] | > 100 nM
O=C(CCc1cn(-c2ccccc2)c(NC(=O)c2cccc(-c3cn[nH]c3)c2)n1)Nc1cnccn1 [Example 22, N-(4-(3-oxo-3-(pyrazin-2-ylamino)propyl)-1-phenyl-1H-imidazol-2-yl)-3-(1H-pyrazol-4-yl)benzamide] | > 100 nM
CNC(=O)CCCc1cn(-c2ccc(F)cc2)c(NC(=O)c2cccc(-c3cn[nH]c3)c2)n1 [Example 297, N-(1-(4-fluorophenyl)-4-(4-(methylamino)-4-oxobutyl)-1H-imidazol-2-yl)-3-(1H-pyrazol-4-yl)benzamide] | < 50 nM
COC[C@@H]1CCCN1C(=O)CCCCc1cn(-c2ccccc2)c(NC(=O)c2cccc(-c3cn[nH]c3)c2)n1 [Example 86, (S)—N-(4-(5-(2-(methoxymethyl)pyrrolidin-1-yl)-5-oxopentyl)-1-phenyl-1H-imidazol-2-yl)-3-(1H-pyrazol-4-yl)benzamide] | < 50 nM
CN1CCN(CCCNC(=O)CCCc2cn(-c3ccccc3)c(NC(=O)c3cccc(-c4cnn(C)c4)c3)n2)CC1 [Example 186, 3-(1-methyl-1H-pyrazol-4-yl)-N-(4-(4-((3-(4-methylpiperazin-1-yl)propyl)amino)-4-oxobutyl)-1-phenyl-1H-imidazol-2-yl)benzamide] | 50 to 100 nM
COC[C@@H]1CCCN1NC(=O)CCCc1cn(-c2ccccc2)c(NC(=O)c2cccc(-c3cn[nH]c3)c2)n1 [Example 53, (S)—N-(4-(4-((2-(methoxymethyl)pyrrolidin-1-yl)amino)-4-oxobutyl)-1-phenyl-1H-imidazol-2-yl)-3-(1H-pyrazol-4-yl)benzamide] | < 50 nM
O=C(CCc1cn(CC2CCCCC2)c(NC(=O)c2cccc(-c3cn[nH]c3)c2)n1)Nc1ccccc1 [Example 295, N-(1-(cyclohexylmethyl)-4-(3-oxo-3-(phenylamino)propyl)-1H-imidazol-2-yl)-3-(1H-pyrazol-4-yl)benzamide] | > 100 nM
O=C(CCCc1cn(-c2ccccc2)c(NC(=O)c2cccc(-c3cn[nH]c3)c2)n1)Nc1ccccc1F [Example 65, N-(4-(4-((2-fluorophenyl)amino)-4-oxobutyl)-1-phenyl-1H-imidazol-2-yl)-3-(1H-pyrazol-4-yl)benzamide] | < 50 nM
COC(=O)Cc1cn(-c2ccccc2)c(NC(=O)c2cccc(-c3cn[nH]c3)c2)n1 [Example 42, methyl 2-(2-(3-(1H-pyrazol-4-yl)benzamido)-1-phenyl-1H-imidazol-4-yl)acetate] | 50 to 100 nM
O=C(Nc1nc(CCCN2CCOCC2)cn1-c1ccccc1)c1cccc(-c2cn[nH]c2)c1 [Example 107, N-(4-(3-morpholinopropyl)-1-phenyl-1H-imidazol-2-yl)-3-(1H-pyrazol-4-yl)benzamide] | < 50 nM
Cn1cc(-c2cccc(C(=O)Nc3nc(CCC(=O)Nc4ccccc4)cn3-c3ccccc3)c2)cn1 [Example 193, 3-(1-methyl-1H-pyrazol-4-yl)-N-(4-(3-oxo-3-(phenylamino)propyl)-1-phenyl-1H-imidazol-2-yl)benzamide] | 50 to 100 nM

Now from value to compound:

IC50 | Compound
< 50 nM | C[C@@H]1CCCCN1C(=O)CCCCc1cn(-c2ccccc2)c(NC(=O)c2cccc(-c3cn[nH]c3)c2)n1 [Example 83, (R)—N-(4-(5-(2-methylpiperidin-1-yl)-5-oxopentyl)-1-phenyl-1H-imidazol-2-yl)-3-(1H-pyrazol-4-yl)benzamide]
< 50 nM | Nc1ccc(-c2cccc(C(=O)Nc3nc(CCCC(=O)N4CCCCC4)cn3-c3ccccc3)c2)cn1 [Example 273, 3-(6-aminopyridin-3-yl)-N-(4-(4-oxo-4-(piperidin-1-yl)butyl)-1-phenyl-1H-imidazol-2-yl)benzamide]
< 50 nM | CN(C(=O)CCCc1cn(-c2ccccc2)c(NC(=O)c2cccc(-c3cn[nH]c3)c2)n1)C1CC1 [Example 71, N-(4-(4-(cyclopropyl(methyl)amino)-4-oxobutyl)-1-phenyl-1H-imidazol-2-yl)-3-(1H-pyrazol-4-yl)benzamide]
< 50 nM | CN1CCN(C(=O)CCCCCc2cn(-c3ccccc3)c(NC(=O)c3cccc(-c4ccc(N)nc4)c3)n2)CC1 [Example 272, 3-(6-aminopyridin-3-yl)-N-(4-(6-(4-methylpiperazin-1-yl)-6-oxohexyl)-1-phenyl-1H-imidazol-2-yl)benzamide]
< 50 nM | CC(=O)N1CCN(C(=O)CCCc2cn(-c3ccccc3)c(NC(=O)c3cccc(-c4cnn(C)c4)c3)n2)CC1 [Example 205, N-(4-(4-(4-acetylpiperazin-1-yl)-4-oxobutyl)-1-phenyl-1H-imidazol-2-yl)-3-(1-methyl-1H-pyrazol-4-yl)benzamide]
50 to 100 nM | O=C(Nc1nc(CCCCCCN2CCCCC2)cn1-c1ccccc1)c1cccc(-c2ccncc2)c1 [Example 268, N-(1-phenyl-4-(6-(piperidin-1-yl)hexyl)-1H-imidazol-2-yl)-3-(pyridin-4-yl)benzamide]
< 50 nM | O=C(Nc1nc(CCCCCC(=O)N2CCCCC2)cn1-c1ccccc1)c1cccc(-c2ccc3[nH]nnc3c2)c1 [Example 242, 3-(1H-benzo[d][1,2,3]triazol-5-yl)-N-(4-(6-oxo-6-(piperidin-1-yl)hexyl)-1-phenyl-1H-imidazol-2-yl)benzamide]
< 50 nM | C[C@H]1CCCCN1C(=O)CCCc1cn(-c2ccccc2)c(NC(=O)c2cccc(-c3cn[nH]c3)c2)n1 [Example 62, (S)—N-(4-(4-(2-methylpiperidin-1-yl)-4-oxobutyl)-1-phenyl-1H-imidazol-2-yl)-3-(1H-pyrazol-4-yl)benzamide]
< 50 nM | O=C(Nc1nc(CCC(=O)N2CCCC2)cn1-c1ccccc1)c1cccc(-c2cn[nH]c2)c1 [Example 28, N-(4-(3-oxo-3-(pyrrolidin-1-yl)propyl)-1-phenyl-1H-imidazol-2-yl)-3-(1H-pyrazol-4-yl)benzamide]
50 to 100 nM | Cn1cc(-c2cccc(C(=O)Nc3nc(CCCC(=O)N4CCN(Cc5ccc(OC(F)(F)F)cc5)CC4)cn3-c3ccccc3)c2)cn1 [Example 173, 3-(1-methyl-1H-pyrazol-4-yl)-N-(4-(4-oxo-4-(4-(4-(trifluoromethoxy)benzyl)piperazin-1-yl)butyl)-1-phenyl-1H-imidazol-2-yl)benzamide]
< 50 nM | Cn1cc(-c2cccc(C(=O)Nc3nc(CCCCCCN4CCCCC4)cn3-c3ccccc3)c2)cn1 [Example 220, 3-(1-methyl-1H-pyrazol-4-yl)-N-(1-phenyl-4-(6-(piperidin-1-yl)hexyl)-1H-imidazol-2-yl)benzamide]
< 50 nM | CN1CCN(C(=O)CCCc2cn(-c3ccccc3)c(NC(=O)c3cccc(-c4ccc5[nH]ncc5c4)c3)n2)CC1 [Example 247, 3-(1H-indazol-5-yl)-N-(4-(4-(4-methylpiperazin-1-yl)-4-oxobutyl)-1-phenyl-1H-imidazol-2-yl)benzamide]
< 50 nM | Cn1cc(-c2cccc(C(=O)Nc3nc(CCCC(=O)N4CCN(C5CC5)CC4)cn3-c3ccccc3)c2)cn1 [Example 149, N-(4-(4-(4-cyclopropylpiperazin-1-yl)-4-oxobutyl)-1-phenyl-1H-imidazol-2-yl)-3-(1-methyl-1H-pyrazol-4-yl)benzamide]
